For data set [1], the system named is mice undergoing unilateral sciatic nerve crush. Briefly: Sciatic nerve crush: plantar flexion tetanic force by nerve stimulation. Type of data set: in vivo, mouse. How it is done:
(§1) Nerve injury was induced as described below. Mice were treated with SW or vehicle as control intraperitoneally once daily for 14 days post-injury as described above.
(§2) The sciatic nerve crush surgery was adopted from the protocol described previously by Bauder and Ferguson (41). The crush surgery was performed as described above with the following modifications. After locating the sciatic nerve, the nerve was mobilized gently with sharp sticks for easy access with hemostatic forceps (Fine Science Tools, 13020-12). Next, the nerve was gently placed on the bottom jaw of the forceps and was crushed for 15 seconds at 3 clicks of the forceps (first location of the locking handle). The incision was closed using 7 mm autoclaved reflex clips (World Precision Instruments, 500344; Applier: 500345). Mice were monitored for recovery from anesthesia and then returned to their home cages.
Plantar flexion peak isometric torque (N·mm) was measured in mice as described previously (2, 42, 43). Briefly, mice were anesthetized with 3% isoflurane mixed with oxygen and legs were shaved from ankle to hip to allow for reproducible access to the tibial nerve. The foot was taped to a footplate attached to a servomotor (Aurora Scientific, 300C-LR) and the knee joint was secured to a fixed steel post. Contractions were elicited by percutaneous electrical stimulation of the tibial nerve by inserting two Pt—Ir electrode needles (Aurora Scientific) posterior to the knee joint. The peak isometric torque was achieved by injecting 0.4 mA current to the tibial nerve at a frequency of 150 Hz and 0.1 ms square wave pulse. Three tetanic measurements were performed on each muscle, with 1 minute recovery between each measurement, and chose the highest value. Force measurement acquisition was blinded and the researcher performing the force measurements was unaware of treatment conditions. Data were analyzed using Aurora Scientific Dynamic Muscle Analysis Software Suite. Force was measured longitudinally in mice undergoing unilateral sciatic nerve crush injury on days 3, 7, and 14 post-injury. Peak tetanic force generated by contralateral uninjured legs was measured in all experimental mice at all time points.

Data set [2] deals with aged mice. Briefly: Electron microscopy of motor neuron-associated mitochondria in EDL axons of aged mice. Type of data set: in vivo, mouse. To be noted: one month of treatment, listed as SW. How it is done:
(§3) Mice were treated for 1 month once a day intraperitoneally with 5 mg/kg of SW033291 (SW) or vehicle (10% ethanol, 5% Cremophor EL, and 85% D5W (5% (wt/v) dextrose in water, Tables 3 and 4)) as previously described (2). Vehicle and SW treatments were performed in seven independent experiments for aging studies that included young and aged vehicle- and SW-treated groups. Mice were randomized based on their body weight into vehicle-treated control and SW-treated experimental groups prior to the start of injections. A full-body necropsy was performed on all mice at the experimental endpoint and mice that developed tumors were excluded from the study.
Extensor digitorum longus (EDL) muscles were dissected and pinned by proximal and distal tendons to the bottom of a petri-dish coated with silicone rubber. Tissues fixed in 2% Glutaraldehyde (Electron Microscopy Sciences, 16000) and 4% paraformaldehyde (Electron Microscopy Sciences, 15700) in 0.1M sodium cacodylate (Electron Microscopy Sciences, 12300) pH 7.4 for 24 hours. Tissues were then transferred from petri-dishes to microcentrifuge tubes with 1% Osmium tetroxide (Electron Microscopy Sciences, 19100) and were kept at room temperature for 1 hour with gentle rotation. […] Images were quantified by an individual blinded to experimental conditions in ImageJ.

Data set [3] concerns aged mice. Briefly: Aged mice treated systemically with SW033291 for one month: muscle PGE2 levels, muscle mass and force. It counts as in vivo, mouse. The settings on record: systemic treatment for one month. The source says:
The prostaglandin E2 catabolizing enzyme, 15-hydroxyprostaglandin dehydrogenase (15-PGDH), is a pivotal regulator of muscle aging and that its inhibition leads to a marked increase in muscle mass and strength in aged mice^1. 15-PGDH is a nicotinamide adenine dinucleotide (NAD+) dependent enzyme that increases with aging in muscle and catabolizes PGE2. FIGS. 1A-1B show increased 15-PGDH activity along with PGE2 levels, and these are reduced in aged mouse muscle. […] Strikingly, overexpression of 15-PGDH in young mouse muscles leads to loss of muscle mass and strength after just one month^1. […]
Plantar flexion peak isometric torque (N·mm) was measured in mice as described previously (2, 42, 43). […] Data were analyzed using Aurora Scientific Dynamic Muscle Analysis Software Suite. Force was measured longitudinally in mice undergoing unilateral sciatic nerve crush injury on days 3, 7, and 14 post-injury. Peak tetanic force generated by contralateral uninjured legs was measured in all experimental mice at all time points.
Prostaglandins, PGE2, PGD2, and PGF2a, and PGE2 metabolites, 15-keto PGE2 and 13,14-dihydro-15-keto PGE2 (PGEM), were measured as described previously (2). Briefly, tissues were snap frozen in liquid nitrogen upon dissection and were kept for no more than 2 weeks in −80° C. freezer before processing for prostaglandin quantification using LC-MS/MS. […]

Data set [4] relates to mice undergoing unilateral sciatic nerve crush. Description: Sciatic nerve crush: NMJ denervation in ipsilateral EDL muscles (immunofluorescence). It counts as in vivo, mouse. To be noted: 14 dpi, daily intraperitoneal treatment, compared to vehicle-treated controls. How it is done: as §1
as §2, with “cages. […]” for “cages.”
Confocal images were acquired on a Marianas spinning disk confocal (SDC) microscopy with Intelligent Imaging Innovations software using a 20×/NA 0.75 or an oil immersion 40×/NA 0.9 objective to capture multiple focal planes at a step size of 1 μm. Images acquired using the 20× objective were analyzed to score denervation, axonal swelling, and fragmentation of AChRs. Images acquired with the oil immersion 40× objective were analyzed to quantity NMJ-associated endolysosomal vesicles stained with α-bungarotoxin-AF647. […]

The next data set concerns the target 15-PGDH (Mus musculus, UniProt Q8VCC1). The settings on record: in vivo; cited from earlier work.
The subject of data set [5] is aged mice. Description: Motor neuron apoptosis: cleaved caspase-3 in ChAT+ neurons of the lumbar spinal cord of aged mice. It counts as in vivo, mouse. To be noted: ChAT+ neurons in ventral horn of lumbar spinal cord. How it is done: as §3
Spinal cords were harvested as previously described using hydraulic extrusion of the entire intact spinal cord. Briefly, mice were euthanized with carbon dioxide and decapitated using scissors caudally to the brain stem. The spinal columns were severed just caudal to the sacral spinal cord. A blunt 25-gauge syringe containing ice-cold PBS was inserted into the caudal end of the spinal cord to hydraulicly extrude the entire cord in a petri0dish with ice-cold PBS. The lumbar region was identified under a stereomicroscope, dissected with a sharp blade, and fixed overnight at 4 C in 4% PFA in phosphate buffer. Fixed lumbar spinal cords were embedded in O.C.T. and were frozen in liquid-nitrogen-cooled isopentane. […]

Data set [6] deals with mice undergoing unilateral sciatic nerve crush. Description: Sciatic nerve crush: body weight and gastrocnemius/soleus muscle weight. It counts as in vivo, mouse. How it is done:
as §1, §2

The test system of data set [7] is aged mice. Description: NMJ morphology in EDL muscles of aged mice (whole-mount staining, confocal microscopy). It counts as in vivo, mouse. How it is done:
as §3
Extensor digitorum longus (EDL) and soleus muscles were dissected and fixed in 4% PFA in PBS for 30 minutes at room temperature. Muscles were washed in PBS extensively and stored in PBS with 0.01% sodium azide (Sigma. S2002) at 4 C until processed. For whole-mount staining, EDLs were separated using the distal tendon into 4 pieces to make thinner sheets of muscles for staining. The proximal and distal tendons of either soleus or EDL pieces were removed to allow for teasing thin bundles of muscle fibers using fine forceps under a stereomicroscope. Care was given in handling tissues to avoid touching the end plate band with forceps tips. Next, myofiber bundles were incubated in PBS-T (0.3% Triton X-100 in PBS) for 1 hour and were blocked in blocking solution (5% goat serum and 0.3% Triton X-100 in PBS) supplemented with 1:50 dilution of goat anti-mouse IgG (Jackson ImmunoResearch, 115-007-003) and IgM (Jackson ImmunoResearch, 115-007-020) for 1 hour at room temperature. Tissues were then incubated with a primary antibody mix against neurofilament and synaptic vesicle (2H3 and SV, DSHB) at 5 μg/ml for a minimum of 24 hours at 4 C with gentle shaking. Tissues were then rinsed with PBS-T and incubated with a secondary antibody mix (goat anti-mouse IgG1-Cy™3, Bungarotoxin-AF™647, and Hoechst 33342) diluted in blocking solution overnight at 4° C. with gentle shaking. Tissues were washed extensively with PBS and mounted in Fluoromount-G™ mounting medium (Southern Biotech, 0100-01) and left overnight to equilibrate prior to confocal microscopy.
Confocal images were acquired on a Marianas spinning disk confocal (SDC) microscopy with Intelligent Imaging Innovations software using a 20×/NA 0.75 or an oil immersion 40×/NA 0.9 objective to capture multiple focal planes at a step size of 1 μm. Images acquired using the 20× objective were analyzed to score denervation, axonal swelling, and fragmentation of AChRs. Images acquired with the oil immersion 40× objective were analyzed to quantity NMJ-associated endolysosomal vesicles stained with α-bungarotoxin-AF647. Maximum intensity projection images were created from confocal slices using NIH ImageJ software. Data acquisition and NMJ scoring were performed by two researchers blinded to treatment conditions.

Where [8] appears, read: aged mice, one month of intraperitoneal administration.
The mark [9] stands for this setting: geriatric mice (>26 months), one month once daily i.p., EDL.

Molecules are shown by their SMILES. “Also recorded” adds a separate entry of the source.

15-PGDH, sequence (Q8VCC1 whole entry): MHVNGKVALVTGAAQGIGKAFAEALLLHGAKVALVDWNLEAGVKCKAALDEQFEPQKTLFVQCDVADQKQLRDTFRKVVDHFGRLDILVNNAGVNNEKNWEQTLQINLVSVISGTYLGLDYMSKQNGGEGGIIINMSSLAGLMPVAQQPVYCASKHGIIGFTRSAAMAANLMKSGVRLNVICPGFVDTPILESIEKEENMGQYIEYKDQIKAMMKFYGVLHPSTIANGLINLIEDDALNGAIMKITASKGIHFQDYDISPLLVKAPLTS

Regarding `CCCC[S+]([O-])c1sc2nc(-c3cccs3)cc(-c3ccccc3)c2c1N` (centres unmarked) [SW033291, 2-(butylsulfinyl)-4-phenyl-6-(thiophen-2-yl)thieno[2,3-b]pyridin-3-amine], the “tetanic plantar flexor force in the injured leg, difference between vehicle and SW” value in data set [1] (3 dpi until 7 dpi) is listed as “no differences between the experimental groups”. Besides, the “plantar flexion force of the contralateral (uninjured) legs, difference between vehicle and SW” value in data set [1] (contralateral control legs, listed as SW) is on record as “no significant differences”. The “increase in specific force (force normalized to gastrocnemius and soleus weight)” value in data set [1] (mean±S.D., compared to vehicle-treated control mice, 14 days post nerve crush) turned out to be 52±10%. In data set [1] (mean±S.D., daily intraperitoneal treatment after nerve crush), the “increase in plantar flexion force generation in injured legs” value turned out to be 69±8%. Further, the “mitochondrial morphology in motor neurons (distal axons / heavily myelinated axons of EDL)” value in the data set with aged mice [2] is given as “improvement, enhancement, and/or rejuvenation of mitochondrial morphology; also recorded: improved, enhanced, and/or rejuvenated to compact circular mitochondria morphology resembling that seen in young”. In the data set on aged mice [3], the “increase in muscle mass and force” value is 15-20%; the “muscle PGE2 levels” value is listed as “to the physiological levels measured in young mice”. For the same compound, the “denervation rates in EDLs ipsilateral to the nerve crush” value in data set [4] is on record as “significantly reduced”. Moreover, the “catabolic regulators of muscle atrophy such as atrogenes, ubiquitin ligases MuRF1 (Trim63) and Fbxo32, and TGF-beta signaling” value on 15-PGDH is listed as “reduction”. Besides, the “activated caspase-3 in aged lumbar motor neurons (apoptosis)” value with aged mice [5] was “lower levels”. Moreover, the “muscle mass in injured legs” value in data set [6] (14 dpi, gastrocnemius and soleus) is given as “significant increase”. Moreover, the “muscle weight of the contralateral control legs, difference between vehicle and SW treatment” value in data set [6] (contralateral control legs, 14 days post nerve crush) is recorded as “No differences”. Moreover, the “animals body weight, difference between vehicle and SW treatment” value in data set [6] (nerve crush model) was “No differences”. For the same compound, in the data set with aged mice [7] (setting [8]), the “morphology of the AChRs” value is reported as “improves, enhances, and/or rejuvenates the intact morphology of the AChRs” and the “number of AChR rich endo/lysosomal vesicles” value is reported as “striking reduction”. For the same compound, the “number of AChR rich endo/lysosomal vesicles” value with aged mice [7] (aged mice, one month of intraperitoneal administration, listed as SW) was “reduces”. Also, in the data set on aged mice [7] (setting [9]), the “aged NMJ morphology” value is “improved, enhanced, and/or rejuvenated to branched and pretzel-like structures found in young EDLs”; the “incidence of AChR fragmentation” value is “significantly reduced”; the “incidence of motor neuron axonal swelling” value is recorded as “significantly reduced”. Moreover, in the data set with aged mice [7] (geriatric mice (>26 months), one month once daily i.p., mean±S.E.M.), the “rate of denervation in aged EDLs” value is on record as 12.4±2.9.

(Values after patent US20240423964A1, “METHODS AND COMPOSITIONS FOR IMPROVING NEUROMUSCULAR JUNCTION MORPHOLOGY AND FUNCTION” (The Board of Trustees of the Leland Stanford Junior …, priority 2021, published 2024).)
